# Reference: the supplement of paper PMC6965134
# ± gives the standard deviation of the averaged measurements.
# Assay: TIMS collisional cross section (CCS, N2) of the lipid ion; higher = larger ion cross section
# Conditions: ionization mode: positive, one isomer drawn
SMILES,TIMS collisional cross section (sample type: HeLa) [Å²],TIMS collisional cross section (sample type: Liver) [Å²],TIMS collisional cross section (sample type: plasma) [Å²]
CCCCCCCCCCCCCCCC(=O)OC[C@@H](O)COP(=O)([O-])OCC[N+](C)(C)C [LPC 16:0_0:0] (ion (formula + adduct): [C24H50NO7P+H] 1+),230.8,230.6,229.87 ± 0.98
CCCCCC/C=C/CCCCCCCC(=O)OC[C@@H](O)COP(=O)([O-])OCC[N+](C)(C)C [LPC 16:1] (ion (formula + adduct): [C24H48NO7P+H] 1+),226,224.5,225.13 ± 1.1
CCCCCC/C=C/CCCCCCCC(=O)OC[C@@H](O)COP(=O)([O-])OCC[N+](C)(C)C [LPC 16:1_0:0] (ion (formula + adduct): [C24H48NO7P+H] 1+),–,–,225.77 ± 1.4
CCCCCCCCCCCCCCCCCC(=O)O[C@H](CO)COP(=O)([O-])OCC[N+](C)(C)C [LPC 18:0] (ion (formula + adduct): [C26H54NO7P+H] 1+),237.1,–,238.4
CCCCCCCCCCC/C=C\CCCCC(=O)O[C@H](CO)COP(=O)([O-])OCC[N+](C)(C)C [LPC 18:1] (ion (formula + adduct): [C26H52NO7P+H] 1+),–,–,231.9
CCCCCCCCCCC/C=C\CCCCC(=O)OC[C@@H](O)COP(=O)([O-])OCC[N+](C)(C)C [LPC 18:1_0:0] (ion (formula + adduct): [C26H52NO7P+H] 1+),233.6,232.95 ± 1.1,232.8 ± 0.42
CCCCCCCCCCCCC/C=C/C=C/C(=O)OC[C@@H](O)COP(=O)([O-])OCC[N+](C)(C)C [LPC 18:2_0:0] (ion (formula + adduct): [C26H50NO7P+H] 1+),227.3 ± 1.3,227.6 ± 1.3,226.96 ± 1.1
CC/C=C\C/C=C\C/C=C\CCCCCCCC(=O)OC[C@@H](O)COP(=O)([O-])OCC[N+](C)(C)C [LPC 18:3] (ion (formula + adduct): [C26H48NO7P+H] 1+),–,–,224.9
CC/C=C/C=C/C=C/C=C/CCCCCCCC(=O)OC[C@@H](O)COP(=O)([O-])OCC[N+](C)(C)C [LPC 18:4] (ion (formula + adduct): [C26H46NO7P+H] 1+),–,–,220.8
CCCCCCCCCCCCCCCCCCCC(=O)OC[C@@H](O)COP(=O)([O-])OCC[N+](C)(C)C [LPC 20:0_0:0] (ion (formula + adduct): [C28H58NO7P+H] 1+),–,–,245
CCCCCCCCCC/C=C\CCCCCCCC(=O)OC[C@@H](O)COP(=O)([O-])OCC[N+](C)(C)C [LPC 20:1_0:0] (ion (formula + adduct): [C28H56NO7P+H] 1+),–,239,239.3
CCCCC/C=C\C/C=C\C/C=C\CCCCCCC(=O)OC[C@@H](O)COP(=O)([O-])OCC[N+](C)(C)C [LPC 20:3] (ion (formula + adduct): [C28H52NO7P+H] 1+),234.05 ± 2.8,236.2,232.57 ± 2.1
CCCCC/C=C\C/C=C\C/C=C\CCCCCCC(=O)OC[C@@H](O)COP(=O)([O-])OCC[N+](C)(C)C [LPC 20:3_0:0] (ion (formula + adduct): [C28H52NO7P+H] 1+),–,231.55 ± 1.1,232.43 ± 1.2
CCCCC/C=C\C/C=C\C/C=C\C/C=C\CCCC(=O)OC[C@@H](O)COP(=O)([O-])OCC[N+](C)(C)C [LPC 20:4] (ion (formula + adduct): [C28H50NO7P+H] 1+),–,230,231.65 ± 3.2
CCCCC/C=C\C/C=C\C/C=C\C/C=C\CCCC(=O)O[C@H](CO)COP(=O)([O-])OCC[N+](C)(C)C [LPC 20:4] (ion (formula + adduct): [C28H50NO7P+H] 1+),–,–,231.1
CC/C=C\C/C=C\C/C=C\C/C=C\C/C=C\CCCC(=O)OC[C@@H](O)COP(=O)([O-])OCC[N+](C)(C)C [LPC 20:5_0:0] (ion (formula + adduct): [C28H48NO7P+H] 1+),–,–,226.4
CCCCCCCCCC/C=C\CCCCCCCCCC(=O)OC[C@@H](O)COP(=O)([O-])OCC[N+](C)(C)C [LPC 22:1] (ion (formula + adduct): [C30H60NO7P+H] 1+),247.3,–,247.6
CCCCCCCCCC/C=C\CCCCCCCCCC(=O)OC[C@@H](O)COP(=O)([O-])OCC[N+](C)(C)C [LPC 22:1_0:0] (ion (formula + adduct): [C30H60NO7P+H] 1+),246.1,–,246.6
CCCCC/C=C\C/C=C\CCCCCCCCCCCC(=O)OC[C@@H](O)COP(=O)([O-])OCC[N+](C)(C)C [LPC 22:2] (ion (formula + adduct): [C30H58NO7P+H] 1+),–,–,242

SMILES,TIMS collisional cross section (sample type: HeLa) [Å²],TIMS collisional cross section (sample type: Liver) [Å²],TIMS collisional cross section (sample type: plasma) [Å²]
CCCCC/C=C\C/C=C\C/C=C\C/C=C\CCCCCC(=O)OC[C@@H](O)COP(=O)([O-])OCC[N+](C)(C)C [LPC 22:4] (ion (formula + adduct): [C30H54NO7P+H] 1+),–,–,237.55 ± 1.2
CCCCC/C=C\C/C=C\C/C=C\C/C=C\C/C=C\CCC(=O)OC[C@@H](O)COP(=O)([O-])OCC[N+](C)(C)C [LPC 22:5] (ion (formula + adduct): [C30H52NO7P+H] 1+),232.9,–,233.2
CC/C=C\C/C=C\C/C=C\C/C=C\C/C=C\C/C=C\CCC(=O)OC[C@@H](O)COP(=O)([O-])OCC[N+](C)(C)C [LPC 22:6] (ion (formula + adduct): [C30H50NO7P+H] 1+),232.4,234.5,233.5 ± 1.3
CC/C=C\C/C=C\C/C=C\C/C=C\C/C=C\C/C=C\CCC(=O)OC[C@@H](O)COP(=O)([O-])OCC[N+](C)(C)C [LPC 22:6_0:0] (ion (formula + adduct): [C30H50NO7P+H] 1+),–,–,233.1
CCCCCCCCCCCCCCCCCCCCCCCC(=O)OC[C@@H](O)COP(=O)([O-])OCC[N+](C)(C)C [LPC 24:0] (ion (formula + adduct): [C32H66NO7P+H] 1+),258.5,258.9,259.1
CCCCCCCC/C=C\CCCCCCCCCCCCCC(=O)OC[C@@H](O)COP(=O)([O-])OCC[N+](C)(C)C [LPC 24:1] (ion (formula + adduct): [C32H64NO7P+H] 1+),253.5,253.85 ± 0.49,253.3
CCCCCCCCCCCCCCCCOC[C@@H](O)COP(=O)([O-])OCC[N+](C)(C)C [LPC O- 16:0] (ion (formula + adduct): [C24H52NO6P+H] 1+),230.5,–,230.6
CCCC/C=C\CCCCCCCCCCOC[C@@H](O)COP(=O)([O-])OCC[N+](C)(C)C [LPC O- 16:1] (ion (formula + adduct): [C24H50NO6P+H] 1+),225.4,–,224.8
CCCCCCCCCCCCCCCCCCOC[C@@H](O)COP(=O)([O-])OCC[N+](C)(C)C [LPC O- 18:0] (ion (formula + adduct): [C26H56NO6P+H] 1+),238.4,238.2,–
CCCCCC/C=C\CCCCCCCCCCOC[C@@H](O)COP(=O)([O-])OCC[N+](C)(C)C [LPC O- 18:1] (ion (formula + adduct): [C26H54NO6P+H] 1+),233.6,–,233.67 ± 0.64
CCCCCCCCCCCCCCCCCCCCOC[C@@H](O)COP(=O)([O-])OCC[N+](C)(C)C [LPC O- 20:0] (ion (formula + adduct): [C28H60NO6P+H] 1+),–,–,245.9
CCCCCCCCCCCCCCCC(=O)O[C@H](CO)COP(=O)(O)OCCN [LPE 16:0] (ion (formula + adduct): [C21H44NO7P+H] 1+),–,214.5,–
CCCCCCCCCCCCCCCC(=O)OC[C@@H](O)COP(=O)(O)OCCN [LPE 16:0] (ion (formula + adduct): [C21H44NO7P+H] 1+),214.5,215.9 ± 2.1,215.7 ± 2.5
CCCCCCCCCCCCCCCC(=O)OC[C@@H](O)COP(=O)(O)OCCN [LPE 16:0_0:0] (ion (formula + adduct): [C21H44NO7P+H] 1+),217.4,–,–
CCCCCC/C=C\CCCCCCCC(=O)OC[C@@H](O)COP(=O)(O)OCCN [LPE 16:1] (ion (formula + adduct): [C21H42NO7P+H] 1+),–,207.8,207.4
CCCCCC/C=C\CCCCCCCC(=O)OC[C@@H](O)COP(=O)(O)OCCN [LPE 16:1_0:0] (ion (formula + adduct): [C21H42NO7P+H] 1+),210.1,–,–
CCCCCCCCCCCCCCCCCC(=O)O[C@H](CO)COP(=O)(O)OCCN [LPE 18:0] (ion (formula + adduct): [C23H48NO7P+H] 1+),221.7,222,–
CCCCCCCCCCCCCCCCCC(=O)OC[C@@H](O)COP(=O)(O)OCCN [LPE 18:0] (ion (formula + adduct): [C23H48NO7P+H] 1+),–,–,221.8
CCCCCC/C=C\CCCCCCCCCC(=O)O[C@H](CO)COP(=O)(O)OCCN [LPE 18:1] (ion (formula + adduct): [C23H46NO7P+H] 1+),218.1,215.4,–
